{"source": "patent US9688628B1", "about": "“Drug repositioning: urease inhibitory activity of (2S)-1-[(2S)-2-methyl-3-sulfanylpropanoyl]pyrrolidine-2-carboxylic acid (captopril)” (priority 2016, dated 2017)", "key": {"[1]": {"biological_target": "T1, Jack bean urease (Canavalia ensiformis, UniProt P07374)", "T1 construct": "purchased Sigma-Aldrich (USA) Type IX", "T1 sequence (P07374 whole entry, looked up)": "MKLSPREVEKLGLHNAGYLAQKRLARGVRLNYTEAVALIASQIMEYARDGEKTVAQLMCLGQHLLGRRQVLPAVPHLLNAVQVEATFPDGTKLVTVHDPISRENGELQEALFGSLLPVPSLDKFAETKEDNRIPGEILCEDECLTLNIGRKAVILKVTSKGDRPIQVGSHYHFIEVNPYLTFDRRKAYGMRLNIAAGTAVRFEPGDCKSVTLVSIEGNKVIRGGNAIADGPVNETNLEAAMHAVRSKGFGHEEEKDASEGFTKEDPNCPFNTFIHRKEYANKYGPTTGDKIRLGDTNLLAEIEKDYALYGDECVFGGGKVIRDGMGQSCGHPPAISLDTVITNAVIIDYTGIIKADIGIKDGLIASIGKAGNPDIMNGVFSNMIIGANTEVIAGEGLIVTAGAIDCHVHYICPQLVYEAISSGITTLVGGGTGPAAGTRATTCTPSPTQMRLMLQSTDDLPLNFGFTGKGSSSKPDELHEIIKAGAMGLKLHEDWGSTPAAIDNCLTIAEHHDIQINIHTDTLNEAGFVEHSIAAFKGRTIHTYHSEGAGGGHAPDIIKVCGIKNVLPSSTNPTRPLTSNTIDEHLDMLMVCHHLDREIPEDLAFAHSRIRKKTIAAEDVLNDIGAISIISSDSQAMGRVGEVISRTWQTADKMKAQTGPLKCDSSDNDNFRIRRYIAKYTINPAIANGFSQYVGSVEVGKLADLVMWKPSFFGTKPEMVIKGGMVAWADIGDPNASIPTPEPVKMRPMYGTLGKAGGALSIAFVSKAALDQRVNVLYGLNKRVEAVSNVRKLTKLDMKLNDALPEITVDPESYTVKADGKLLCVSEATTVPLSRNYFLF", "test": "biochemical"}, "[2]": {"biological_target": "T1, Jack bean urease", "test": "mechanistic (kinetic) studies on urease", "assay_type": "biochemical", "procedure": "For mechanistic studies, urease enzyme solution (1 U/200 μL) was incubated with different concentrations of inhibitors for 15 min at 30° C. The reaction was initiated by adding different concentrations of substrate (0.5-4.0 mM), then phenol and alkali reagent were added and change in absorbance was measured for 50 minutes at 630 nm on microtitre plate reader (Spectra Max M5, Molecular Devices, CA, USA).\nThe IC50 values were calculated by the EZ-Fit enzyme kinetics program (Perellela Scientific, Inc., Amherst, USA). Lineweaver-Burk plot, secondary plot, and Dixon plot were plotted by using Grafit 7 (Erithacus Software Limited, UK). Grafit 7 program was used to evaluate the correlation coefficients, slopes, and intercepts by linear regression analysis."}}}
{"molecule": "C[C@H](CS)C(=O)N1CCC[C@H]1C(=O)O", "note": "[Captopril, (2S)-1-[(2S)-2-methyl-3-sulfanylpropanoyl]pyrrolidine-2-carboxylic acid]", "values": [{"measurement": "IC50", "setting": "[1]", "result": "27 ± 1.97", "unit": "µM"}, {"measurement": "type of inhibition (Lineweaver-Burk plot)", "setting": "[2]; FIG. 2A, apparent Km and Vmax changed", "result": "mixed-type inhibitor"}, {"measurement": "type of inhibition (Dixon plot)", "setting": "[2]; FIG. 2C, 1/Vmax vs [I]", "result": "non-competitive"}]}
